# Results taken from PubChem BioAssay (NCI).
#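 Here, GI50 denotes the concentration required for 50% inhibition of growth. TGI is the concentration that stops growth completely.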
# Assays:
# Test in all cases: NCI tumour cell line growth inhibition, 384-well format
# OVCAR-3 ovarian = tested on: OVCAR-3 ovarian
# NCI-H322M lung = tested on: NCI-H322M lung
# MDA-MB-468 breast = tested on: MDA-MB-468 breast
# OVCAR-8 ovarian = tested on: OVCAR-8 ovarian
# LOX IMVI melanoma = tested on: LOX IMVI melanoma
# SF-295 CNS = tested on: SF-295 CNS
# SF-268 CNS = tested on: SF-268 CNS
# M14 melanoma = tested on: M14 melanoma
# HL-60(TB) leukemia = tested on: HL-60(TB) leukemia
# NCI/ADR-RES ovarian = tested on: NCI/ADR-RES ovarian
# MOLT-4 leukemia = tested on: MOLT-4 leukemia
# IGROV1 ovarian = tested on: IGROV1 ovarian
# NCI-H23 lung = tested on: NCI-H23 lung
# K-562 leukemia = tested on: K-562 leukemia
# RXF 393 renal = tested on: RXF 393 renal
# PC-3 prostate = tested on: PC-3 prostate
# OVCAR-5 ovarian = tested on: OVCAR-5 ovarian
# SN12C renal = tested on: SN12C renal
# MCF7 breast = tested on: MCF7 breast
# MDA-MB-231 breast = tested on: MDA-MB-231 breast
# EKVX NSCLC = tested on: EKVX NSCLC
# NCI-H226 lung = tested on: NCI-H226 lung
# SK-MEL-5 melanoma = tested on: SK-MEL-5 melanoma
# U251 glioblastoma = tested on: U251 glioblastoma
# SW-620 colon = tested on: SW-620 colon
# UACC-62 melanoma = tested on: UACC-62 melanoma
# CAKI-1 renal = tested on: CAKI-1 renal
# T-47D breast = tested on: T-47D breast
# ACHN renal = tested on: ACHN renal
# HS 578T breast = tested on: HS 578T breast
# MDA-MB-435 melanoma = tested on: MDA-MB-435 melanoma
# UO-31 renal = tested on: UO-31 renal
# OVCAR-4 ovarian = tested on: OVCAR-4 ovarian
# A549 NSCLC = tested on: A549 NSCLC
# SK-MEL-28 melanoma = tested on: SK-MEL-28 melanoma
# MALME-3M melanoma = tested on: MALME-3M melanoma
# UACC-257 melanoma = tested on: UACC-257 melanoma
# SNB-19 CNS = tested on: SNB-19 CNS
# TK-10 renal = tested on: TK-10 renal
# HT29 colon = tested on: HT29 colon
# A498 renal = tested on: A498 renal
# NCI-H460 NSCLC = tested on: NCI-H460 NSCLC
# BT-549 breast = tested on: BT-549 breast
# SK-OV-3 ovarian = tested on: SK-OV-3 ovarian
# NCI-H522 lung = tested on: NCI-H522 lung
# RPMI-8226 leukemia = tested on: RPMI-8226 leukemia
# 786-0 renal = tested on: 786-0 renal
# SNB-75 CNS = tested on: SNB-75 CNS
# SF-539 CNS = tested on: SF-539 CNS
# HOP-62 NSCLC = tested on: HOP-62 NSCLC
# KM12 colon = tested on: KM12 colon
# DU-145 prostate = tested on: DU-145 prostate
# CCRF-CEM leukemia = tested on: CCRF-CEM leukemia
# SR leukemia = tested on: SR leukemia
# HOP-92 NSCLC = tested on: HOP-92 NSCLC
# HCC-2998 colon = tested on: HCC-2998 colon
# HCT-15 colon = tested on: HCT-15 colon
# COLO 205 colon = tested on: COLO 205 colon
smiles,measurement,setting,value
CC1(COc2ccc3c(c2)ncn3-c2ccc3cccc(N4CCC(N)CC4)c3n2)COC1,GI50,OVCAR-3 ovarian,1560 nM
same,TGI,OVCAR-3 ovarian,3010 nM
same,GI50,NCI-H322M lung,1950 nM
same,TGI,NCI-H322M lung,3490 nM
same,GI50,MDA-MB-468 breast,532 nM
same,TGI,MDA-MB-468 breast,1600 nM
same,GI50,OVCAR-8 ovarian,1180 nM
same,TGI,OVCAR-8 ovarian,2430 nM
same,GI50,LOX IMVI melanoma,636 nM
same,TGI,LOX IMVI melanoma,1890 nM
same,GI50,SF-295 CNS,1580 nM
same,TGI,SF-295 CNS,2940 nM
same,GI50,SF-268 CNS,1160 nM
same,TGI,SF-268 CNS,2440 nM
same,GI50,M14 melanoma,1500 nM
same,TGI,M14 melanoma,2830 nM
same,GI50,HL-60(TB) leukemia,275 nM
same,TGI,HL-60(TB) leukemia,901 nM
same,GI50,NCI/ADR-RES ovarian,1710 nM
same,TGI,NCI/ADR-RES ovarian,3390 nM
same,GI50,MOLT-4 leukemia,362 nM
same,TGI,MOLT-4 leukemia,1170 nM
same,GI50,IGROV1 ovarian,1670 nM
same,TGI,IGROV1 ovarian,3080 nM
same,GI50,NCI-H23 lung,622 nM
same,TGI,NCI-H23 lung,1880 nM
same,GI50,K-562 leukemia,967 nM
same,TGI,K-562 leukemia,2150 nM
same,GI50,RXF 393 renal,1560 nM
same,TGI,RXF 393 renal,2910 nM
same,GI50,PC-3 prostate,1690 nM
same,TGI,PC-3 prostate,3160 nM
same,GI50,OVCAR-5 ovarian,1730 nM
same,TGI,OVCAR-5 ovarian,3410 nM
same,GI50,SN12C renal,250 nM
same,TGI,SN12C renal,1580 nM
same,GI50,MCF7 breast,1350 nM
same,TGI,MCF7 breast,2650 nM
same,GI50,MDA-MB-231 breast,1060 nM
same,TGI,MDA-MB-231 breast,2500 nM
same,GI50,EKVX NSCLC,1760 nM
same,TGI,EKVX NSCLC,3410 nM
same,GI50,NCI-H226 lung,1560 nM
same,TGI,NCI-H226 lung,2990 nM
same,GI50,SK-MEL-5 melanoma,1370 nM
same,TGI,SK-MEL-5 melanoma,2660 nM
same,GI50,U251 glioblastoma,1340 nM
same,TGI,U251 glioblastoma,2700 nM
same,GI50,SW-620 colon,1100 nM
same,TGI,SW-620 colon,2420 nM
same,GI50,UACC-62 melanoma,1460 nM
same,TGI,UACC-62 melanoma,2770 nM
same,GI50,CAKI-1 renal,1000 nM
same,TGI,CAKI-1 renal,2230 nM
same,GI50,T-47D breast,2070 nM
same,TGI,T-47D breast,3560 nM
same,GI50,ACHN renal,1150 nM
same,TGI,ACHN renal,2470 nM
same,GI50,HS 578T breast,573 nM
same,TGI,HS 578T breast,1730 nM
same,GI50,MDA-MB-435 melanoma,1280 nM
same,TGI,MDA-MB-435 melanoma,2550 nM
same,GI50,UO-31 renal,1550 nM
same,TGI,UO-31 renal,2950 nM
same,GI50,OVCAR-4 ovarian,2180 nM
same,TGI,OVCAR-4 ovarian,3640 nM
same,GI50,A549 NSCLC,1280 nM
same,TGI,A549 NSCLC,2630 nM
same,GI50,SK-MEL-28 melanoma,1680 nM
same,TGI,SK-MEL-28 melanoma,3050 nM
same,GI50,MALME-3M melanoma,1850 nM
same,TGI,MALME-3M melanoma,3250 nM
same,GI50,UACC-257 melanoma,2710 nM
same,TGI,UACC-257 melanoma,4190 nM
same,GI50,SNB-19 CNS,1980 nM
same,TGI,SNB-19 CNS,4520 nM
same,GI50,TK-10 renal,1710 nM
same,TGI,TK-10 renal,3680 nM
same,GI50,HT29 colon,1630 nM
same,TGI,HT29 colon,3050 nM
same,GI50,A498 renal,1670 nM
same,TGI,A498 renal,3040 nM
same,GI50,NCI-H460 NSCLC,479 nM
same,TGI,NCI-H460 NSCLC,1600 nM
same,GI50,BT-549 breast,370 nM
same,TGI,BT-549 breast,1410 nM
same,GI50,SK-OV-3 ovarian,1610 nM
same,TGI,SK-OV-3 ovarian,3000 nM
same,GI50,NCI-H522 lung,441 nM
same,TGI,NCI-H522 lung,1630 nM
same,GI50,RPMI-8226 leukemia,242 nM
same,TGI,RPMI-8226 leukemia,708 nM
same,GI50,786-0 renal,808 nM
same,TGI,786-0 renal,2070 nM
same,GI50,SNB-75 CNS,1530 nM
same,TGI,SNB-75 CNS,2870 nM
same,GI50,SF-539 CNS,501 nM
same,TGI,SF-539 CNS,1930 nM
same,GI50,HOP-62 NSCLC,556 nM
same,TGI,HOP-62 NSCLC,1760 nM
same,GI50,KM12 colon,39.5 nM
same,TGI,KM12 colon,1450 nM
same,GI50,DU-145 prostate,1090 nM
same,TGI,DU-145 prostate,2350 nM
same,GI50,CCRF-CEM leukemia,365 nM
same,TGI,CCRF-CEM leukemia,1400 nM
same,GI50,SR leukemia,185 nM
same,TGI,SR leukemia,430 nM
same,GI50,HOP-92 NSCLC,1180 nM
same,TGI,HOP-92 NSCLC,2470 nM
same,GI50,HCC-2998 colon,1390 nM
same,TGI,HCC-2998 colon,2730 nM
same,GI50,HCT-15 colon,1450 nM
same,TGI,HCT-15 colon,2990 nM
same,GI50,COLO 205 colon,482 nM
same,TGI,COLO 205 colon,1630 nM
